For 42 compounds, IC50 results are on record in US9718790B2, “Triazine derivative and pharmaceutical composition having an analgesic activity comprising the same” (SHIONOGI & CO., LTD., priority 2010, dated 2017).

For one test, the target named is human P2X3 receptor (Homo sapiens (Human), UniProt P56373). The experiment in a line: Evaluation of human P2X3 receptor inhibitory activity (Fluo-3 calcium fluorescence, FDSS 3000, ATP stimulation).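 Also: stimulus was 50 nM ATP with fluorescence followed for 3 min, and the response per well was peak post-ATP fluorescence divided by the reading at measurement start.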 Format: cell-based. Particulars: C6BU-1 cells stably expressing human P2X3 receptor.
human P2X3 receptor, sequence (P56373 whole entry): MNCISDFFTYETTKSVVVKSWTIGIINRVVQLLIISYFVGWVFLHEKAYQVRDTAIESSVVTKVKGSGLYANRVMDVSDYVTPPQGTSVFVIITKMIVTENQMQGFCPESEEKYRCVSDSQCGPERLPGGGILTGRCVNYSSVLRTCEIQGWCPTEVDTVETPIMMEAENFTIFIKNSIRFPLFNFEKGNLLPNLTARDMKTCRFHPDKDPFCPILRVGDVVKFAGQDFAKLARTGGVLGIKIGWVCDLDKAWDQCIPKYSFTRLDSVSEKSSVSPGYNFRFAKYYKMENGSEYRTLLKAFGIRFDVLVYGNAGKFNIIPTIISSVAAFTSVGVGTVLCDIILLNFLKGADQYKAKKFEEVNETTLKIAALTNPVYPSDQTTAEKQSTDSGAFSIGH
As to `CC[C@@H](CC(=O)OC)n1c(=O)[nH]/c(=N\c2ccc(OC(C)C)c(C)c2)n(Cc2ccc(Cl)cc2)c1=O` [Compound I-0782], the 50% inhibitory concentration (IC50) was found to be 0.192 µM. For `Cc1ccc(Cn2c(=O)n(CCCC(=O)O)c(=O)[nH]/c2=N\c2ccc3nc(C)sc3c2)cc1` [Compound I-2124], the IC50 amounted to 0.027 µM. Turning to `CCn1c(=O)[nH]/c(=N\c2ccc(Oc3cncc(C(=O)O)c3)cc2)n(CC2CCC3(CC2)CC3)c1=O` [Compound I-2175], the concentration for half-maximal inhibition (IC50) was found to be 0.013 µM. `CCn1c(=O)[nH]/c(=N\c2ccc(Oc3ccnc(C(=O)OC)c3)cc2)n(CC2CCC(C)(C)CC2)c1=O` [Compound I-2205]: the concentration for half-maximal inhibition (IC50) came to 0.009 µM. Same read-out and setting: for `O=c1ccccn1-c1ccc(/N=c2\[nH]c(=O)n(CCO)c(=O)n2Cc2ccc(Cl)cc2)cc1` [Compound I-2044] the value was 0.125 µM. On to `CCn1c(=O)[nH]/c(=N\c2ccc(OCC3(C(=O)O)CC3)cc2)n(Cc2ccc(Cl)cc2)c1=O` [Compound I-2021], for which the IC50 was determined as 0.23 µM. Same read-out and setting: to `CCOC(=O)c1nc(Cn2c(=O)[nH]/c(=N\c3ccc(OC(C)C)c(C)c3)n(Cc3ccc(Cl)cc3)c2=O)cs1` [Compound I-0785] belongs 0.011 µM; to `CNC(=NC#N)NCCn1c(=O)[nH]/c(=N\c2ccc(OC(C)C)c(F)c2)n(Cc2ccc(Cl)cc2)c1=O` [Compound I-0653, 1-(4-chlorobenzyl)-6-(3-fluoro-4-isopropoxyphenylimino)-3-(4-cyanoimino-4-methylamino-3-azabutyl)-1,3,5-triazinane-2,4-dion], 0.037 µM; to `CCOC(=O)CCn1c(=O)[nH]/c(=N\c2ccc(OC(C)C)c(OC)c2)n(Cc2ccc(Cl)cc2)c1=O` [Compound I-1248], 0.006 µM.

Regarding `CCn1c(=O)[nH]/c(=N\c2ccc(Oc3ccnc(NC(C)=O)c3)cc2)n(Cc2ccc(Cl)cc2)c1=O` [Compound I-2216], the half-maximal inhibitory concentration (IC50) was found to be 0.005 µM. Same read-out and setting: for `Cc1ccc(Cn2c(=O)n(CCC(=O)O)c(=O)[nH]/c2=N\c2cc(C(F)(F)F)ccc2C)cc1` [Compound I-2082] the value was 0.833 µM; for `CCOC(=O)C1(Cn2c(=O)[nH]/c(=N\c3ccc(OC(C)C)c(C)c3)n(Cc3ccc(Cl)cc3)c2=O)CC1` [Compound I-0694], 0.013 µM. The same measure, in the same setting: to `CC(C)Cc1ccc(/N=c2\[nH]c(=O)n([C@@H](C)[C@@H](C)C(=O)O)c(=O)n2Cc2ccc(Cl)cc2)cc1Cl` [Compound I-1442] belongs 0.008 µM.

Take `CCn1c(=O)[nH]/c(=N\c2ccc(Oc3nc(C)c(C(=O)O)s3)cc2)n(Cc2ccc(Cl)cc2)c1=O` [Compound I-2151]: the IC50 came out at 0.012 µM. For `CCn1c(=O)[nH]/c(=N\c2ccc(Oc3cncc(C(=O)O)c3)cc2)n(Cc2ccc(F)cc2)c1=O` [Compound I-2112], the half-inhibitory concentration (IC50) is 0.047 µM.

Turning to `CC1CCC(Cn2c(=O)n(CCC(N)=O)c(=O)[nH]/c2=N\c2ccc(OC(C)C)c(Cl)c2)CC1` (stereo not drawn) [Compound I-2020], the IC50 was 0.006 µM. The same measure, in the same setting: to `CCn1c(=O)[nH]/c(=N\c2ccc(Oc3ccnc(OC)n3)cc2)n(Cc2ccc(Cl)cc2)c1=O` [Compound I-2008] belongs 0.007 µM.

Still in this test, the particulars now being: C6BU-1 cells stably expressing human P2X3 receptor, Fluo-3 fluorescence, FDSS 3000.
Regarding `CCN(c1ccc(/N=c2\[nH]c(=O)n(C[C@H](C)C(=O)OC)c(=O)n2Cc2ccc(Cl)cc2)cc1)C(C)C` [Compound I-0952], the IC50 amounted to 0.741 µM. In the case of `Cc1cc(/N=c2\[nH]c(=O)n([C@@H](C)[C@H](C)C(=O)O)c(=O)n2Cc2ccc(Cl)cc2)ccc1OC(C)C` [Compound I-1026], the IC50 was found to be 0.182 µM. In the case of `C[C@@H](C(=O)O)[C@H](C)n1c(=O)[nH]/c(=N\c2ccc3c(c2)CCC(=O)N3)n(Cc2ccc(Cl)cc2)c1=O` [Compound I-1819], the half-maximal inhibitory concentration (IC50) was 0.873 µM. As to `Cc1ccc(Cn2c(=O)n(CCC(=O)O)c(=O)[nH]/c2=N\c2cn(C)nc2C(=O)NC(C)C)cc1` [Compound I-1839], the 50% inhibitory concentration (IC50) came out at 0.107 µM. For the compound `CCc1oc2ccc(/N=c3\[nH]c(=O)n(CCCNC(=O)C(F)(F)F)c(=O)n3Cc3ccc(Cl)cc3)cc2c1C` [Compound I-1567], the IC50 amounted to 0.012 µM.

As for `CCc1oc2ccc(/N=c3\[nH]c(=O)n(CCCNC(C)=O)c(=O)n3Cc3ccc(Cl)cc3)cc2c1C` [Compound I-1568], the IC50 is 0.01 µM. Consider `CCc1oc2ccc(/N=c3\[nH]c(=O)n(C[C@H](C)NC(C)=O)c(=O)n3Cc3ccc(Cl)cc3)cc2c1C` [Compound I-1666], for which the IC50 is 0.01 µM.

As for `CNC(=O)[C@@H](C)Cn1c(=O)[nH]/c(=N\c2ccc(Oc3ccc(O)nc3)cc2)n(Cc2ccc(C)cc2)c1=O` [Compound I-1601], the IC50 came out at 0.024 µM. For the compound `CCOc1ccc(/N=c2\[nH]c(=O)n(CC3(C(=O)O)CC3)c(=O)n2Cc2ccc(Cl)cc2)cc1Cl` [Compound I-0924], the IC50 was 0.03 µM. Turning to `C[C@@H](C(=O)O)[C@H](C)n1c(=O)[nH]/c(=N\c2ccc3cc(Br)ccc3c2)n(Cc2ccc(Cl)cc2)c1=O` [Compound I-1832], the IC50 is 0.032 µM.

The test is the same for the next values; noted with them: human P2X3 receptor, Test Example 1.
On to `CCOC(=O)Cn1c(=O)[nH]/c(=N\c2ccc(Oc3cccc(F)n3)cc2)n(Cc2ccc(Cl)cc2)c1=O` [Compound I-2562], for which the half-inhibitory concentration (IC50) came out at 0.004 µM. For the compound `Cc1ccc(Cn2c(=O)n(C[C@H](C)C(=O)O)c(=O)[nH]/c2=N\c2cnc(OC3CCC3)c(C)c2)cc1` [Compound I-1482], the IC50 came to 0.098 µM. Take `Cc1cnc(Oc2ccc(/N=c3\[nH]c(=O)n(CC(=O)NCCO)c(=O)n3Cc3ccc(Cl)cc3)cc2)s1` [Compound I-2649]: the concentration for half-maximal inhibition (IC50) came out at 0.006 µM. The same measure, in the same setting: for `Cc1cnc(Oc2ccc(/N=c3\[nH]c(=O)n(CC(=O)O)c(=O)n3Cc3ccc(Cl)cc3)cc2)s1` [Compound I-2624] the value was 0.368 µM; for `COC(=O)[C@@H](C)Cn1c(=O)[nH]/c(=N\c2ccc(OC3CC3)cc2)n(Cc2ccc(C)cc2)c1=O` [Compound I-1514], 0.024 µM; for `CC(C)Oc1ccc(/N=c2\[nH]c(=O)n(C(C)(C)CC(=O)O)c(=O)n2Cc2ccc(Cl)cc2)cc1F` [Compound I-0830], 0.089 µM. Take `Cc1cnc(Oc2ccc(/N=c3\[nH]c(=O)n(CC(O)CO)c(=O)n3Cc3ccc(Cl)cc3)cc2)s1` (stereo not drawn) [Compound I-2456]: the IC50 turned out to be 0.008 µM. Turning to `Cn1c(=O)[nH]/c(=N\c2ccc(Oc3cc(C(=O)O)ncn3)cc2)n(Cc2ccc(Cl)cc2)c1=O` [Compound I-2447], the half-maximal inhibitory concentration (IC50) was determined as 0.01 µM. Regarding `CCn1c(=O)[nH]/c(=N\c2ccc(Oc3ccnc(NC(=O)NC)c3)cc2)n(Cc2ccc(Cl)cc2)c1=O` [Compound I-2425], the IC50 was found to be 0.002 µM. `COC(=O)[C@@H](C)Cn1c(=O)[nH]/c(=N\c2ccc(C3CC3)c(Cl)c2)n(Cc2ccc(C)cc2)c1=O` [Compound I-1487]: the 50% inhibitory concentration (IC50) turned out to be 0.106 µM.

For the compound `C=COc1ccc(/N=c2\[nH]c(=O)n(C[C@H](C)C(=O)OC)c(=O)n2Cc2ccc(C)cc2)cc1Cl` [Compound I-1548], the IC50 stood at 0.005 µM. On to `COC(=O)C[C@@H](C)n1c(=O)[nH]/c(=N\c2ccc(OC(C)C)c(Cl)c2)n(Cc2ccc(C)cc2)c1=O` [Compound I-0875], for which the IC50 turned out to be 0.014 µM. The same measure, in the same setting: for `O=c1[nH]/c(=N\c2ccc(Oc3ccsn3)cc2)n(Cc2ccc(Cl)cc2)c(=O)n1CCO` [Compound I-2563] the value was 0.015 µM.

For `Cn1c(=O)[nH]/c(=N\c2ccc(Oc3ccc(C(=O)O)cn3)cc2)n(Cc2ccc(Cl)cc2)c1=O` [Compound I-2442], the IC50 amounted to 0.018 µM. For `CCOC(=O)Cn1c(=O)[nH]/c(=N\c2ccc(Oc3ncccn3)cc2)n(Cc2ccc(Cl)cc2)c1=O` [Compound I-2657], the concentration for half-maximal inhibition (IC50) was 0.007 µM.

In general, IC50 refers to the point on the concentration scale where inhibition reaches its midpoint.
